Results published in ChEMBL document CHEMBL1201862, “PubChem BioAssay data set” (2004).
Active and inactive are the calls of the source.

Experiments:
[1] = test system: Streptococcus sp. 'group A'; experiment: growth inhibition of control SK(-) GAS strain, dose response, counter-screen for streptokinase expression inhibitor project, luminescence, kanamycin, BacTiterGlo, confirmation (AID 1900); type: functional, organism-based
[2] = Vero E6 cell cytotoxicity, dose response, cytotoxicity control for non-replicating M. tuberculosis project, secondary assay (AID 492998); type: functional, VeroE6; details: Vero C1008
Streptococcus = experiment: Group A Streptococcus viability loss, dose response, counter-screen for streptokinase expression inhibitor project, luminescence, BacTiterGlo (AID 1915); type: functional, organism-based;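 further: potency for reduction of bacterial viability or growth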
[3] = THP-1 cell cytotoxicity, dose response, cytotoxicity control for non-replicating M. tuberculosis project (AID 489025); type: functional
cells = type: functional
[4] = molecular target: E3 ubiquitin-protein ligase Mdm2 (Homo sapiens, UniProt Q00987); experiment: enhancers of MDM2-luciferase reporter signal, concentration-effect titration, project on inhibitors of MDM2 ubiquitin ligase, cellular assay, luminescent readout, 384-well plate format (AID 1394); type: functional;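 further: MDM2 E3 inhibitors raise luminescence so EC50 is for signal enhancement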
[5] = molecular target: Mitochondrial peptide methionine sulfoxide reductase (Bos taurus, UniProt P54149); experiment: Absorbance-based biochemical high throughput dose response assay for activators of Methionine sulfoxide reductase A (MsrA).; type: functional
Sequence of Mitochondrial peptide methionine sulfoxide reductase (P54149 whole entry): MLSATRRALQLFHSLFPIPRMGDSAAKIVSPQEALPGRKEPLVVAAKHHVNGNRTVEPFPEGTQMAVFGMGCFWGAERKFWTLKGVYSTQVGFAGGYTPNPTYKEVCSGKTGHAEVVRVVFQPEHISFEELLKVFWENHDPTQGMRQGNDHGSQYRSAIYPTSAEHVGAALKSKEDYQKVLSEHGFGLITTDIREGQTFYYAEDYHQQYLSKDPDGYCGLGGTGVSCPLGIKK

[6] = M. tuberculosis growth inhibition, HTS (AID 449762); type: functional
Ephrin type-A receptor 4 = Ephrin type-A receptor 4 (Mus musculus, UniProt Q03137); experiment: inhibitors of EphA4 binding to KYL peptide, primary screen, biochemical, colorimetric, mouse EphA4 (AID 689); type: functional
[7] = molecular target: Bifunctional protein GlmU (Mycobacterium tuberculosis, UniProt P9WMN3); experiment: Inhibitors of Mycobacterial Glucosamine-1-phosphate acetyl transferase (GlmU). Secondary screen.; parameters: species or system Mycobacterium tuberculosis H37Rv
[8] = molecular target: Beta-adrenergic receptor kinase 1 (Homo sapiens, UniProt P25098); experiment: aptamer displacement from bead-bound GRK2 – biochemical, cherry pick 1, bead flow cytometry, dose response (AID 504500)
[9] = molecular target: T1, Voltage-gated N-type calcium channel alpha-1B subunit/Amyloid beta A4 precursor protein-binding family A member 1 (Homo sapiens, UniProt Q00975+Q02410); type: protein assay
T1 sequence (Q00975 whole entry): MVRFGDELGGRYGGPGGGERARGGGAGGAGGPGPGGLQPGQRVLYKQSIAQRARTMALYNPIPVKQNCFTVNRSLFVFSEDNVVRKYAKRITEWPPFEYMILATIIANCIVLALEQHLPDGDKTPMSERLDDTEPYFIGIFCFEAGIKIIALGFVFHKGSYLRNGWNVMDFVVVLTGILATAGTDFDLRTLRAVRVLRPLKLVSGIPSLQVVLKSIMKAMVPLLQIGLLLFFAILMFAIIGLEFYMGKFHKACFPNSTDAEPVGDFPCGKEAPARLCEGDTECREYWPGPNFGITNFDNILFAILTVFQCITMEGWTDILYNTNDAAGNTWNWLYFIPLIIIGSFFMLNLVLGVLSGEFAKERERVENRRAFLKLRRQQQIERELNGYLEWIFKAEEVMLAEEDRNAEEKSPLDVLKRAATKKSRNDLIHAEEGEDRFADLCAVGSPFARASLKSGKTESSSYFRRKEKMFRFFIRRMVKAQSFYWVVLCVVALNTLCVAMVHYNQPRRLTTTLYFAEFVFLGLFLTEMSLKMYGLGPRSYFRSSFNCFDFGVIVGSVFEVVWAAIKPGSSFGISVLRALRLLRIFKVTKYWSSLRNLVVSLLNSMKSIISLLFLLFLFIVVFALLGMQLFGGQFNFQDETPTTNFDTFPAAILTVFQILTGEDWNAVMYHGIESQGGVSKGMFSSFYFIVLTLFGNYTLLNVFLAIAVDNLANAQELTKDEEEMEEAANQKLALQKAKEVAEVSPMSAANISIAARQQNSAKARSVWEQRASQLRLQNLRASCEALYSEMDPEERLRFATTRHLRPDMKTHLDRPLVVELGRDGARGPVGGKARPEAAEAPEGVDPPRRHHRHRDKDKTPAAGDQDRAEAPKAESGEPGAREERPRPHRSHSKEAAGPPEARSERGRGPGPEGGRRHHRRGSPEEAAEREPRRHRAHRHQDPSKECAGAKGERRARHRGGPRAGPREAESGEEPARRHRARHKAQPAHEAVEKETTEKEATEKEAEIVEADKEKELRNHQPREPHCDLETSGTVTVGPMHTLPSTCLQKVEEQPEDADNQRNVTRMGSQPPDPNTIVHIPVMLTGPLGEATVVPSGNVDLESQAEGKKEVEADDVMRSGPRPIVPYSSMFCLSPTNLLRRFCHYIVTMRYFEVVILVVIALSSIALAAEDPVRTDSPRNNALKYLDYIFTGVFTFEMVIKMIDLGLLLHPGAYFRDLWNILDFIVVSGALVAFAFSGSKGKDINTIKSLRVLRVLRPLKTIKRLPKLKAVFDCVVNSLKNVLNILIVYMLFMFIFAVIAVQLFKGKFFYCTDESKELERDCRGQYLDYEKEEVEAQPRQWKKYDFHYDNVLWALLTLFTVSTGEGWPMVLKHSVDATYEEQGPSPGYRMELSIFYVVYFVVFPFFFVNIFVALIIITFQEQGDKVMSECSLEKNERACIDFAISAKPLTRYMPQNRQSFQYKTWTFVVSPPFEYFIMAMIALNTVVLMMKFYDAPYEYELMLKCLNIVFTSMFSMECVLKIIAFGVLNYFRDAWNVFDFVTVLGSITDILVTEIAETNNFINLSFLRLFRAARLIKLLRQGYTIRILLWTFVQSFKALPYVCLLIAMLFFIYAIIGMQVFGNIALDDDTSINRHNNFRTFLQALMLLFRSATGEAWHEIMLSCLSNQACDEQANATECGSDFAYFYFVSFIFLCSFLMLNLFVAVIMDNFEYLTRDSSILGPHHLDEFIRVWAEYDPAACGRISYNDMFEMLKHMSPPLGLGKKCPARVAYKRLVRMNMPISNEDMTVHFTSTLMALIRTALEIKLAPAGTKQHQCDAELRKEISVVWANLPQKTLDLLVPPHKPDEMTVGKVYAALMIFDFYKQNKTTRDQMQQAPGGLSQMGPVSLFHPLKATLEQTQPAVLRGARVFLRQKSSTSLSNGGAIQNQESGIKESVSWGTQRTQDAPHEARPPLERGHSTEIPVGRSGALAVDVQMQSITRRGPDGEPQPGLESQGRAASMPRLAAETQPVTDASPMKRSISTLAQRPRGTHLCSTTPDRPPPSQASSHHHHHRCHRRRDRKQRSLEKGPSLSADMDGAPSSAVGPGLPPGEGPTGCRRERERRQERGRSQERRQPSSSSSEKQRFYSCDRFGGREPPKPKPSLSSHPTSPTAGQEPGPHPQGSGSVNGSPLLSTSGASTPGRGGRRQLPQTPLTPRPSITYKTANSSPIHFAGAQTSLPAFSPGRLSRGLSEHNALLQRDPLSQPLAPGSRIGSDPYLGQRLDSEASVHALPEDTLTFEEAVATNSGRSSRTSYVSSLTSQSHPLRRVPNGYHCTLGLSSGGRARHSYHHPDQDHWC
T1 sequence (Q02410 whole entry): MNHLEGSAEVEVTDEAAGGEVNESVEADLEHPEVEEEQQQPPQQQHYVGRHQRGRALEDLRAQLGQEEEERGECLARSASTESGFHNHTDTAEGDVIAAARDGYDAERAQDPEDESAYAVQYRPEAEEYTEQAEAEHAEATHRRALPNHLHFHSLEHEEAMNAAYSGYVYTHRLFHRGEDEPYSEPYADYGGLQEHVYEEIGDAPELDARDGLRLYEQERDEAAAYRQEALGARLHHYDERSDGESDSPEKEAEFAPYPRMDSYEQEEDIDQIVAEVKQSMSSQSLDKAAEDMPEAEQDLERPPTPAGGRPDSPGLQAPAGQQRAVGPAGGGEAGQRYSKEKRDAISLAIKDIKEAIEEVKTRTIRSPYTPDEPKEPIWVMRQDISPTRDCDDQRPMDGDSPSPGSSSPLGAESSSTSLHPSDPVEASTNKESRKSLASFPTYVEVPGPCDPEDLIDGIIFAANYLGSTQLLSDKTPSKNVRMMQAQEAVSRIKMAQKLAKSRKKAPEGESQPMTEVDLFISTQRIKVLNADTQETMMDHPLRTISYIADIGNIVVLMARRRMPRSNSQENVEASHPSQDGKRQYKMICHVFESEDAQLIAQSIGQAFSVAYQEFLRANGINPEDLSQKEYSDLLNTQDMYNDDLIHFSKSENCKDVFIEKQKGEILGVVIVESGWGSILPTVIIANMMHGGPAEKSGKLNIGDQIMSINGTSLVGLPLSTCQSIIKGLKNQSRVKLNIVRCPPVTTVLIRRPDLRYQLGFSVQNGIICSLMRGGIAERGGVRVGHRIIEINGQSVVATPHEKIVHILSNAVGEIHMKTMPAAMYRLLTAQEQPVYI

Large T antigen = Large T antigen (Simian virus 40, UniProt P03070); type: functional, Betapolyomavirus macacae;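 further: Confirmatory-stage PubChem screen for compounds that inhibit SV40 T antigen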
SUMO-activating enzyme [10] = molecular target: T2, SUMO-activating enzyme (Homo sapiens, UniProt Q9UBT2); experiment: SUMOylation inhibitor hit validation, confirmation, SUMOylation inhibitor project, biochemical, AlphaScreen (AID 2018); type: functional
T2 sequence (Q9UBE0 whole entry): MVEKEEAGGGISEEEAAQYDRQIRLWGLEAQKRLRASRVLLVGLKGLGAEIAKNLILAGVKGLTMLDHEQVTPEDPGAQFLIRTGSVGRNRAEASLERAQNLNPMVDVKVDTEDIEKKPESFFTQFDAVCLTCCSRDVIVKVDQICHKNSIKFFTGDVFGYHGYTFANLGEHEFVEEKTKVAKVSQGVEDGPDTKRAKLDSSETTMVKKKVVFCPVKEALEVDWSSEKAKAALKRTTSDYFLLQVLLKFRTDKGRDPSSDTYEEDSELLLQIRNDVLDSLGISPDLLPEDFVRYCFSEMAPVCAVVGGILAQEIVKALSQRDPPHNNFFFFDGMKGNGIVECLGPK
T2 sequence (Q9UBT2 whole entry): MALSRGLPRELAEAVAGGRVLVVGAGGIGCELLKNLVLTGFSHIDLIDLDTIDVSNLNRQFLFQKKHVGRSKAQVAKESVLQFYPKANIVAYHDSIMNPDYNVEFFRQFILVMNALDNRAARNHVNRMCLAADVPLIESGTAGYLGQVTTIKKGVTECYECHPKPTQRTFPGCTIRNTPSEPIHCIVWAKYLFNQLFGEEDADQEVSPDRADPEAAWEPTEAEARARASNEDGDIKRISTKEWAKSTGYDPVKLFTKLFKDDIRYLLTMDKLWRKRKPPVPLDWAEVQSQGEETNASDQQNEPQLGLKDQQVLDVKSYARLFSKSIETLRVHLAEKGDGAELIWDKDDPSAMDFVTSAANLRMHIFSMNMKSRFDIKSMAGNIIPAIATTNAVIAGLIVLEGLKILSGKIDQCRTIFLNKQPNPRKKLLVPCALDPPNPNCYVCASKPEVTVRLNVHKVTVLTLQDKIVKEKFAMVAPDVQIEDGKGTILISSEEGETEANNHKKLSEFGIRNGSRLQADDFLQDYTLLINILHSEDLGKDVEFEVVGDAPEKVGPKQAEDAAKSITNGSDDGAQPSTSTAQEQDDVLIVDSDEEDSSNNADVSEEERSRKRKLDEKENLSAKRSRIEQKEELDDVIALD

SUMO-activating enzyme [11] = molecular target: T2, SUMO-activating enzyme; experiment: inhibitors of in vitro SUMOylation cascade, primary screen, biochemical, HTRF, uHTS (AID 2006); type: protein-complex assay
ORF 73 = ORF 73 (Human herpesvirus 8, UniProt O40947); experiment: inhibitors of C-LANA binding to LBS DNA, dose response, biochemical, fluorescence polarization, cherry-picked samples (AID 504725); parameters: species or system Human gammaherpesvirus 8;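 further: fluorescence polarization of a labeled DNA duplex reporting LANA DNA binding; potency is for inhibitors that block LANA binding to the DNA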
[12] = molecular target: Eukaryotic translation initiation factor 4E (Mus musculus, UniProt P63073); experiment: eIF4E–eIF4G protein interaction inhibitors, dose response, biochemical, TR-FRET (AID 855); type: functional;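 further: potency for disrupting eIF4E binding to eIF4GI seen as loss of FRET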
[13] = molecular target: Induced myeloid leukemia cell differentiation protein Mcl-1 (Homo sapiens, UniProt Q07820); type: functional
Sequence of Induced myeloid leukemia cell differentiation protein Mcl-1 (Q07820 whole entry): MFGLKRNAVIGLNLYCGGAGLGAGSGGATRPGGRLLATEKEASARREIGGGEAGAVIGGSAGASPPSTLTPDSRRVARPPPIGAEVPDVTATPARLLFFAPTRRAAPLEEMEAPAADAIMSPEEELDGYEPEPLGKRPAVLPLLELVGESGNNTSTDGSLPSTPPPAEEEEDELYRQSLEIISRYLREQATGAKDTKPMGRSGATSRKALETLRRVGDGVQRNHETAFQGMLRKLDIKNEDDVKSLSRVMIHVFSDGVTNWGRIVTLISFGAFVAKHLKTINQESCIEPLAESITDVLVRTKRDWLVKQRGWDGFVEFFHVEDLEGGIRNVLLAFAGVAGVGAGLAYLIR

[14] = molecular target: T1, Voltage-gated N-type calcium channel alpha-1B subunit/Amyloid beta A4 precursor protein-binding family A member 1; type: protein assay; remark: listed apart in the source
[15] = molecular target: ADP-ribosylation factor GTPase-activating protein 1 (Rattus norvegicus, UniProt Q62848); experiment: Fluorescence polarization-based biochemical high throughput dose response screening assay to identify inhibitors of ADP-ribosylation factor GTPase activating protein 1 (ARFGAP1).; type: functional
[16] = growth suppression of PTEN-null colon cells, dose response, cell-based, HCT116 PTEN knockout (AID 1047); type: functional;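 further: HCT116 colon tumor cells with PTEN knocked out; cells exposed to compound for 60 hours before readout; potency for loss of cell viability measured by luminescence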
[17] = molecular target: Protein-tyrosine kinase 2-beta (Homo sapiens, UniProt Q14289);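 further: potency of inhibitors of PYK2 kinase phosphorylation of poly-GT substrate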
[18] = molecular target: Arf-GAP with SH3 domain, ANK repeat and PH domain-containing protein 1 (Homo sapiens, UniProt Q9ULH1); type: functional;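 further: biochemical fluorescence polarization dose–response screen measuring inhibition of ASAP1; ASAP1 GAP domain stimulating GTP hydrolysis by truncated human ARF1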
[19] = molecular target: Serine/threonine-protein phosphatase PP1-alpha catalytic subunit (Homo sapiens, UniProt P62136); experiment: PP1 phosphatase inhibitors, dose response, biochemical, fluorescence (AID 2394)
[20] = molecular target: T3, Serine/threonine-protein phosphatase (Homo sapiens, UniProt Q9BPW0); experiment: PP5 phosphatase inhibitors, dose response, biochemical, fluorescence (AID 2395)
T3 sequence (Q9BPW0 whole entry): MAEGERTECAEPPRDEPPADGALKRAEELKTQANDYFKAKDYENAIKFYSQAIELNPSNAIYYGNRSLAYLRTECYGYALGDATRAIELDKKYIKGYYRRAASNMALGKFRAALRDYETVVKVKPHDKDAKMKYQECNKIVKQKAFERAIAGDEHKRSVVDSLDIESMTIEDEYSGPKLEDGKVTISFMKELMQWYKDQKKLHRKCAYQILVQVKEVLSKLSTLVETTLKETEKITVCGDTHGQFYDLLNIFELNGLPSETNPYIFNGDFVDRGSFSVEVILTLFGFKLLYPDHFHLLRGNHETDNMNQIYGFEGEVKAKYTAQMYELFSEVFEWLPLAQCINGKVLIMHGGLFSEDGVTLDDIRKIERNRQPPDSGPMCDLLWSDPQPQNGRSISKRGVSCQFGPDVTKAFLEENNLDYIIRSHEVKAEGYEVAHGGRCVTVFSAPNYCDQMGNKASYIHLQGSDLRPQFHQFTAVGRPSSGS

[21] = molecular target: T4, Heat shock factor protein 1 (Mus musculus, UniProt P38532); experiment: HSF1 potentiators in luciferase reporter cells, confirmation, cell-based, NIH3T3, luminescence, dose retest (AID 435004); type: functional;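 further: stress induced by proteasome inhibitor MG132 added 30 min after compound; luciferase reporter driven by HSF1 response element in NIH3T3 cells; actives raise luminescence as potentiators of the MG132 stress response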
T4 sequence (P38532 whole entry): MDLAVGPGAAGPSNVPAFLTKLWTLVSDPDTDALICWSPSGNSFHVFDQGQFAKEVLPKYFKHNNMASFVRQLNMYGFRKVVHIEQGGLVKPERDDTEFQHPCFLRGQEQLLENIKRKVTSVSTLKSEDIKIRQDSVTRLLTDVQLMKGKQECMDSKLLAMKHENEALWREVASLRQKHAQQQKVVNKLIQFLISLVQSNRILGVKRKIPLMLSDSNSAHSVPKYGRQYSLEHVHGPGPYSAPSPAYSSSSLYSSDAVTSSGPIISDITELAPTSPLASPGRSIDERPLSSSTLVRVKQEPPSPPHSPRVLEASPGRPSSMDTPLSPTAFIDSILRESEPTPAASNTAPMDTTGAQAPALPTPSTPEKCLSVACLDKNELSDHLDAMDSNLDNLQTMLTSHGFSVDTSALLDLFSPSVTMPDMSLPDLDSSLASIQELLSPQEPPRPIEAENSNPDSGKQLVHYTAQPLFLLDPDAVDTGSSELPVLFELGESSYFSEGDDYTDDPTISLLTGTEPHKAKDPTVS

[22] = ARNT/TACC3 interaction disruptors, potency, confirmation, biochemical, AlphaScreen, cherry-picked samples (AID 651703); type: functional, Homo sapiens;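 further: His-tagged ARNT PAS-B domain paired with GST-TACC3 E629A dimer coactivator fragment; potency of inhibitors that break up the complex and lower AlphaScreen signal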
[23] = microbe, parasite or virus in culture; type: functional; details: Mycobacterium tuberculosis
[24] = molecular target: Peroxisome proliferator-activated receptor gamma/Nuclear receptor coactivator 3 (Homo sapiens, UniProt P37231); experiment: TR-FRET dose response biochemical High Throughput Screening assay for agonists of the steroid receptor coactivator 3 (SRC-3) recruitment by the peroxisome proliferator-activated receptor gamma (PPAR gamma): non-selective agonists. [Related pubchem assays: 1301 (Confirmation screen.), 1048 (Primary screen.)]; type: functional
Estrogen receptor = molecular target: T5, Estrogen receptor (Homo sapiens, UniProt P03372);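 further: potency for inhibiting coactivator peptide recruitment to the receptor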
T5 sequence (P03372 whole entry): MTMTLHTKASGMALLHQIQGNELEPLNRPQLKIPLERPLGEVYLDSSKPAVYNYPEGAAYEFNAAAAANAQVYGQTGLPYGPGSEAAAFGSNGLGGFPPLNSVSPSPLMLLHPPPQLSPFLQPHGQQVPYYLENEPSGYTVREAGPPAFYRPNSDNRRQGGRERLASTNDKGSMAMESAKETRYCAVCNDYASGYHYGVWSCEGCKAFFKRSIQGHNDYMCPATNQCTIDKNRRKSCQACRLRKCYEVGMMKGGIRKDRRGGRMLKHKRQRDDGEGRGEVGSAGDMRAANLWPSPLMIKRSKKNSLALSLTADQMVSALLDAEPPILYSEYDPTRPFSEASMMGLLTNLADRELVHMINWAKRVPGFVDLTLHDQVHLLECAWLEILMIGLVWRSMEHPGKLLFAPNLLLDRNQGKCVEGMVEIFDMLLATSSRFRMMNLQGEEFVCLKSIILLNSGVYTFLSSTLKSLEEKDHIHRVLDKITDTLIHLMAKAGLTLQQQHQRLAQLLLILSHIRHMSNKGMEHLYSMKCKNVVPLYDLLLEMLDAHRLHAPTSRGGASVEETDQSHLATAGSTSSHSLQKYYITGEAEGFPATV

Genome polyprotein = Genome polyprotein (Hepatitis C virus, UniProt Q2Q167); experiment: HCV core protein dimerization inhibitors, dose response, biochemical, TR-FRET (AID 2159); parameters: species or system Hepacivirus hominis;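 further: blocks dimerization of HCV core protein measured by TR-FRET between tagged core106 pairs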
Sequence of Genome polyprotein (Q2Q167 whole entry): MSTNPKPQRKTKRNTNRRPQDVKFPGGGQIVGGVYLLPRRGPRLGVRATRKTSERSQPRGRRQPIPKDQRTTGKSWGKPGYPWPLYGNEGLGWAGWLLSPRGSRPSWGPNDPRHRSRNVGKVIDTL

[25] = molecular target: Peroxisome proliferator-activated receptor gamma/Nuclear receptor coactivator 2 (Homo sapiens, UniProt P37231); experiment: (§1) TR-FRET dose response biochemical High Throughput Screening assay for agonists of the steroid receptor coactivator 2 (SRC-2) recruitment by the peroxisome proliferator-activated receptor gamma (PPAR gamma): non-selective agonists. [Related pubchem assays: 1297, 1032 ]; type: functional
[26] = molecular target: Peroxisome proliferator-activated receptor gamma/Nuclear receptor coactivator 1 (Homo sapiens, UniProt P37231); experiment: as §1, with “1 (SRC-1)” for “2 (SRC-2)”, “assays (depositor defined):AID1300, AID1808, AID504735, AID631]” for “assays: 1297, 1032 ]”; type: protein assay
[27] = molecular target: Heat shock protein HSP 90-alpha (Homo sapiens, UniProt P07900); experiment: Luminescence-based dose response biochemical high throughput screening assay for inhibitors of the Heat Shock Protein 90 (HSP90). [Related pubchem assays: 1831 (Summary AID.), 1846 (Confirmation screen.), 1789 (Primary screen.)]
Estrogen receptor beta = Estrogen receptor beta (Homo sapiens, UniProt Q92731);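 further: recombinant ER-beta bound to coactivator SRC1 peptide in presence of estradiol agonist; inhibitors block coactivator peptide binding and lower the FRET signal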
Bcl-2-related protein A1 [28] = molecular target: T6, Bcl-2-related protein A1 (Mus musculus, UniProt Q07440); experiment: Bfl-1 inhibitors, primary screen, biochemical, fluorescence polarization, FITC-Bid, mouse (AID 432)
T6 sequence (Q07440 whole entry): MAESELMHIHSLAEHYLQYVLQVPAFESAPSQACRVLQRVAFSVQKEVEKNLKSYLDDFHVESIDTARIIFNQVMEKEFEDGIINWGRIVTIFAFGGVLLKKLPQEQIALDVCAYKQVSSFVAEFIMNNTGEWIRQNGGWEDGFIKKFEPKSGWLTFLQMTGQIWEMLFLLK

Bcl-2-related protein A1 [29] = molecular target: T6, Bcl-2-related protein A1; experiment: Bfl-1 inhibitors blocking BH3 peptide binding, confirmation, biochemical, TR-FRET, mouse Bfl-1 (AID 621);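 further: TR-FRET binding of GST-Bfl-1 to FITC-labelled Bid peptide via terbium antibody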

Compound: O=C(Nc1nnc(-c2ccc(Cl)cc2)o1)c1ccccc1Br
- EC50 [1]: 3.15 µM (active)
- CC50 [2]: 18 µM (active)
- EC50 (Streptococcus): 5.91 µM (active)
- CC50 [3]: 37 µM (active)
- IC50 (cells): 3.74 µM (active)
- EC50 [4]: 12.8 µM (not active)

Compound: Cc1ccc2[nH]c3c(c2c1)CN(C(=O)CN1CCN(c2ccccn2)CC1)CC3
- EC50 [5]: > 104 µM (inactive)
- IC50 [6]: > 100 µM (active)

Compound: Cc1ccccc1C(=O)c1cccn1CC(=O)NCC1CCCO1 (configuration not stated)
- IC50 (Ephrin type-A receptor 4): > 100 µM (not active)

Compound: Cc1ccc(NC(=O)CN2C(=O)N/C(=C/c3cccn3-c3ccc(C(=O)O)cc3)C2=O)cc1
- IC50 [7]: 29.4 µM (active)
- EC50 [8]: 1.21 µM (active)
- IC50 [9]: 28.9 µM (active)
- IC50 (Large T antigen): 24.7 µM (active)
- IC50 (SUMO-activating enzyme [10]): 1.09 µM (active)
- IC50 (SUMO-activating enzyme [11]): 12 µM (active)
- AC50 (ORF 73): 33.9 µM (active)
- IC50 [12]: 9.54 µM (active)
- IC50 [13]: 0.996 µM (not active)
- IC50 [14]: 10.5 µM (active)

Compound: Cc1ccc2cc3cc(C(=O)NCc4ccc5c(c4)OCO5)oc3nc2c1
- IC50 [15]: 16.7 µM (inactive)
- EC50 [16]: 20.9 µM (active)
- IC50 [17]: 46.5 µM (not active)
- IC50 [18]: 12.5 µM (inactive)

Compound: CCCCN(CC)c1nc(N)c2c(N)nc(OCC)cc2c1C#N
- IC50 [19]: > 67 µM (not active)
- IC50 [20]: 15.2 µM (not active)
- EC50 [21]: > 260 µM (inactive)
- AC50 [22]: 92.8 µM (active)
- CC50 [23]: > 40 µM (active)

Compound: Cc1cc(C(=O)OCC(=O)c2ccc(Br)s2)no1
- EC50 [24]: > 79.4 µM (not active)
- IC50 (Estrogen receptor): 36.2 µM (not active)
- IC50 (Genome polyprotein): > 49.8 µM (not active)
- EC50 [25]: 3.89 µM (active)
- EC50 [26]: 137 µM (inactive)

Compound: Cc1nc(NC(=O)c2ccc(F)cc2)sc1C(=O)Nc1ccc2c(c1)CCC2
- IC50 [27]: 3.84 µM (active)

Compound: CC(=N)/C(C#N)=C(/O)CSc1nnc(Nc2cccc(C)c2C)s1
- IC50 (Estrogen receptor beta): 12.3 µM (active)

Compound: CC(C)[C@H]1C(=O)N2CCC[C@H]2[C@]2(O)O[C@](NC(=O)[C@@H]3C=C4c5cccc6[nH]cc(c56)C[C@H]4N(C)C3)(C(C)C)C(=O)N12 [ERGOCORNINE]
- IC50 (Bcl-2-related protein A1 [28]): > 100 µM (not active)
- IC50 (Bcl-2-related protein A1 [29]): > 100 µM (not active)
